In ChEMBL document CHEMBL4831524, “AZD0284, a Potent, Selective, and Orally Bioavailable Inverse Agonist of Retinoic Acid Receptor-Related Orphan Receptor C2” (J Med Chem, 2021):

Key:
cells = settings: Homo sapiens, Th17, 96 h
in vitro [1] = settings: human, liver microsomes
physchem = settings: 1-octanol/phosphate buffered saline, pH 7.4
[2] = Apparent permeability across apical to basolateral side in human Caco-2 cells; type: ADME, cell-based
[3] = Intrinsic permeability of compound from apical to basolateral side in human Caco2 cells; type: ADME, cell-based; settings: Caco-2
[4] = molecular target: Voltage-gated inwardly rectifying potassium channel KCNH2 (Homo sapiens, UniProt Q12809)
[5] = rat, in vivo, po, 1 mg/kg
in vivo [6] = settings: Han Wistar, rat, po, 1 mg/kg
in vivo [7] = settings: Han Wistar, rat, po, 1 mg/kg; remark: listed apart in the source
in vivo [8] = settings: Han Wistar, rat, po, 1 mg/kg; remark: listed apart in the source
in vitro [9] = settings: rat, hepatocytes
in vitro [10] = settings: human, hepatocytes

Chain of Voltage-gated inwardly rectifying potassium channel KCNH2 (Q12809 whole entry): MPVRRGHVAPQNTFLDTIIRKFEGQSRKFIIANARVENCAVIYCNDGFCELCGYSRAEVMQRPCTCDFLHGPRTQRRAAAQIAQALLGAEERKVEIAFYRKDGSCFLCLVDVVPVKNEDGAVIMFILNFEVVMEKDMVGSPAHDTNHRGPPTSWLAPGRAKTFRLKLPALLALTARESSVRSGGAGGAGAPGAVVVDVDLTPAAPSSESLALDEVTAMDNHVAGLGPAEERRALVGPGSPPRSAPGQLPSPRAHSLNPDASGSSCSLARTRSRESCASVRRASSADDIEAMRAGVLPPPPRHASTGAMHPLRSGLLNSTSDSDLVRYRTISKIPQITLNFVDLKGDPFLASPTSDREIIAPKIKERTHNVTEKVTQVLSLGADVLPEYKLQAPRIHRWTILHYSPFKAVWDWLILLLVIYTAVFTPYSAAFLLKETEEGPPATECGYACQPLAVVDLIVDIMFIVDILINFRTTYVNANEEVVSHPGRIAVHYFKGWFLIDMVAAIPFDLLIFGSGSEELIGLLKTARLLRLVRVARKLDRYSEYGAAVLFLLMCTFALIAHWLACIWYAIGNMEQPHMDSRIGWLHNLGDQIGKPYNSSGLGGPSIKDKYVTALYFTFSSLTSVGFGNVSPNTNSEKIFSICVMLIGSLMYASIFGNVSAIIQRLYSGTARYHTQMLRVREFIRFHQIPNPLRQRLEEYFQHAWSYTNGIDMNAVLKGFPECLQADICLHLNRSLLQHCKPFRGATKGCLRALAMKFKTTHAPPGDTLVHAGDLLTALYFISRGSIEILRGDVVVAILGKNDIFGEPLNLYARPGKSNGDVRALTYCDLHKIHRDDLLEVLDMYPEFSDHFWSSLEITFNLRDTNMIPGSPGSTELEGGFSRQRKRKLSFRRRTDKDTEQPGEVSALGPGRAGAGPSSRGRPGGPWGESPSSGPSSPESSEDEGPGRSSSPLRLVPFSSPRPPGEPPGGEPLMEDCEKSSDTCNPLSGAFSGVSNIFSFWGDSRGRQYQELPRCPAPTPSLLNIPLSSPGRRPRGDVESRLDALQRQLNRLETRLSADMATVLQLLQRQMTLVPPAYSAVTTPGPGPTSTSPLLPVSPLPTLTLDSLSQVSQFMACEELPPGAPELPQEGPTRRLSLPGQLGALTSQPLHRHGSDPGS

SMILES	microsomal CLint (in vitro [1])	logD (physchem)	other results
CCS(=O)(=O)c1ccc(C(Cc2nnco2)C(=O)Nc2ccc(C(O)(C(F)(F)F)C(F)(F)F)cc2)cc1 (stereo not given)	< 3 µL/min/mg	2.9	IC50 (cells): 0.224 µM
CS(=O)(=O)c1ccc2c(c1)CN(C(=O)C1CCO1)C2C(=O)Nc1ccc(C(O)(C(F)(F)F)C(F)(F)F)cc1 (stereo not given)	< 3 µL/min/mg	2.2	
CCS(=O)(=O)c1ccc(C(NC(C)=O)C(=O)Nc2ccc(C(O)(C(F)(F)F)C(F)(F)F)cc2)nc1 (stereo not given)	< 3 µL/min/mg	2.5	Papp A→B [2]: 0.7 ×10⁻⁶ cm/s; Pm [3]: 7.7; IC50 (cells): 0.063 µM
CCS(=O)(=O)c1ccc2c(c1)CN(C(=O)CCC#N)C2C(=O)Nc1ccc(C(O)(C(F)(F)F)C(F)(F)F)cc1 (stereo not given)	< 3 µL/min/mg	2.5	
CCS(=O)(=O)c1ccc2c(c1)CN(C=O)C2C(=O)Nc1ccc(C(O)(C(F)(F)F)C(F)(F)F)cc1 (stereo not given)	< 3 µL/min/mg	2.9	
CS(=O)(=O)c1ccc2c(c1)CN(C(=O)CCC#N)C2C(=O)Nc1ccc(C(O)(C(F)(F)F)C(F)(F)F)cc1 (stereo not given)	< 3 µL/min/mg	2.3	
CCS(=O)(=O)c1ccc(C(NC(=O)CC2CC2)C(=O)Nc2ccc(C(O)(C(F)(F)F)C(F)(F)F)cc2)nc1 (stereo not given)	22 µL/min/mg	3.5	Papp A→B [2]: 1.1 ×10⁻⁶ cm/s; Pm [3]: 14.2; IC50 [4]: 34 µM; IC50 (cells): 0.02 µM
CC(=O)N1Cc2cc(S(C)(=O)=O)ccc2[C@H]1C(=O)Nc1ccc(C(O)(C(F)(F)F)C(F)(F)F)cc1	< 3 µL/min/mg	2.4	
CCS(=O)(=O)c1ccc(C(NC(=O)Cc2ccccc2)C(=O)Nc2ccc(C(O)(C(F)(F)F)C(F)(F)F)cc2)nc1 (stereo not given)	21 µL/min/mg	4	Papp A→B [2]: 0.9 ×10⁻⁶ cm/s; Pm [3]: 29; IC50 [4]: 16 µM
CCS(=O)(=O)c1ccc(C(Cn2cccn2)C(=O)Nc2ccc(C(O)(C(F)(F)F)C(F)(F)F)cc2)cc1 (stereo not given)	16 µL/min/mg	> 4	Papp A→B [2]: 2.6 ×10⁻⁶ cm/s; Pm [3]: 44; IC50 [4]: 2.4 µM; IC50 (cells): 0.36 µM
CCS(=O)(=O)c1ccc(C(CC(=O)NC)C(=O)Nc2ccc(C(O)(C(F)(F)F)C(F)(F)F)cc2)cc1 (stereo not given)	< 3 µL/min/mg	3.1	Papp A→B [2]: 0.4 ×10⁻⁶ cm/s; Pm [3]: 8
CS(=O)(=O)c1ccc2c(c1)CNC2C(=O)Nc1ccc(C(O)(C(F)(F)F)C(F)(F)F)cc1 (stereo not given)	< 3 µL/min/mg	3	
CNS(=O)(=O)c1ccc2c(c1)CN(C(C)=O)C2C(=O)Nc1ccc(C(O)(C(F)(F)F)C(F)(F)F)cc1 (stereo not given)	< 3 µL/min/mg	2.8	
COCCS(=O)(=O)c1ccc2c(c1)CN(C(C)=O)C2C(=O)Nc1ccc(C(O)(C(F)(F)F)C(F)(F)F)cc1 (stereo not given)	11 µL/min/mg	2.5	
CCS(=O)(=O)c1ccc([C@@H](CC(=O)NC)C(=O)Nc2ccc(C(O)(C(F)(F)F)C(F)(F)F)cc2)cc1	< 3 µL/min/mg	3.2	Papp A→B [2]: 0.3 ×10⁻⁶ cm/s; Pm [3]: 3.2; IC50 [4]: > 40 µM
NCCC(=O)N1Cc2cc(S(=O)(=O)CC3CC3)ccc2C1C(=O)Nc1ccc(C(O)(C(F)(F)F)C(F)(F)F)cc1 (stereo not given)	< 3 µL/min/mg	1.1	
CCS(=O)(=O)c1ccc(C(NC(=O)OC)C(=O)Nc2ccc(C(O)(C(F)(F)F)C(F)(F)F)cc2)nc1 (stereo not given)	< 3 µL/min/mg	2.9	IC50 [4]: 9.3 µM
CCS(=O)(=O)c1ccc(C(NC(=O)Cc2ccccn2)C(=O)Nc2ccc(C(O)(C(F)(F)F)C(F)(F)F)cc2)nc1 (stereo not given)	< 3 µL/min/mg	2.8	IC50 [4]: 4.1 µM

SMILES	microsomal CLint (in vitro [1])	logD (physchem)	other results
COCC(=O)N1Cc2cc(S(=O)(=O)CC3CC3)ccc2C1C(=O)Nc1ccc(C(O)(C(F)(F)F)C(F)(F)F)cc1 (stereo not given)	19 µL/min/mg	3.2	
CNC(=O)N1Cc2cc(S(C)(=O)=O)ccc2C1C(=O)Nc1ccc(C(O)(C(F)(F)F)C(F)(F)F)cc1 (stereo not given)	< 3 µL/min/mg	2.5	
CCS(=O)(=O)c1ccc(C(NC(=O)Cc2nccs2)C(=O)Nc2ccc(C(O)(C(F)(F)F)C(F)(F)F)cc2)nc1 (stereo not given)	16 µL/min/mg	3.1	Papp A→B [2]: 2.5 ×10⁻⁶ cm/s; Pm [3]: 11; IC50 [4]: 5.5 µM
CCS(=O)(=O)c1ccc(C(CC(=O)N(C)C)C(=O)Nc2ccc(C(O)(C(F)(F)F)C(F)(F)F)cc2)cc1 (stereo not given)	5 µL/min/mg	3.1	Papp A→B [2]: 1.4 ×10⁻⁶ cm/s; Pm [3]: 24; IC50 (cells): 0.091 µM
CCS(=O)(=O)c1ccc([C@H](CC(=O)NC)C(=O)Nc2ccc(C(O)(C(F)(F)F)C(F)(F)F)cc2)cc1	< 3 µL/min/mg	3.1	IC50 [4]: > 40 µM
CC(=O)N1Cc2cc(S(=O)(=O)NC3CC3)ccc2C1C(=O)Nc1ccc(C(O)(C(F)(F)F)C(F)(F)F)cc1 (stereo not given)	11 µL/min/mg	3.2	
CS(=O)(=O)c1ccc2c(c1)CN(C(=O)CO)C2C(=O)Nc1ccc(C(O)(C(F)(F)F)C(F)(F)F)cc1 (stereo not given)	< 3 µL/min/mg	1.9	
CC(=O)N1Cc2cc(S(=O)(=O)CCO)ccc2C1C(=O)Nc1ccc(C(O)(C(F)(F)F)C(F)(F)F)cc1 (stereo not given)	3.1 µL/min/mg	2.1	
COC(=O)N1Cc2cc(S(C)(=O)=O)ccc2C1C(=O)Nc1ccc(C(O)(C(F)(F)F)C(F)(F)F)cc1 (stereo not given)	< 3 µL/min/mg	2.9	
CCS(=O)(=O)c1ccc2c(c1)CN(C(=O)C1CCO1)C2C(=O)Nc1ccc(C(O)(C(F)(F)F)C(F)(F)F)cc1 (stereo not given)	< 3 µL/min/mg	2.6	
CNS(=O)(=O)c1ccc2c(c1)CN(C(=O)C1CCO1)C2C(=O)Nc1ccc(C(O)(C(F)(F)F)C(F)(F)F)cc1 (stereo not given)	< 3 µL/min/mg	2.6	
CNS(=O)(=O)c1ccc2c(c1)CN(C=O)C2C(=O)Nc1ccc(C(O)(C(F)(F)F)C(F)(F)F)cc1 (stereo not given)	6.8 µL/min/mg	2.7	
CC(=O)N1Cc2cc(S(=O)(=O)CC3CC3)ccc2C1C(=O)Nc1ccc(C(O)(C(F)(F)F)C(F)(F)F)cc1 (stereo not given)	< 3 µL/min/mg	3.4	
CC(=O)N1Cc2cc(S(=O)(=O)CC3(F)CC3)ccc2C1C(=O)Nc1ccc(C(O)(C(F)(F)F)C(F)(F)F)cc1 (stereo not given)	7.9 µL/min/mg	3.1	
CC(=O)N1CCc2cc(S(C)(=O)=O)ccc2C1C(=O)Nc1ccc(C(O)(C(F)(F)F)C(F)(F)F)cc1 (racemic)	< 3 µL/min/mg	2.9	
CC(=O)NC(C(=O)Nc1ccc(C(O)(C(F)(F)F)C(F)(F)F)cc1)c1ccc(S(C)(=O)=O)cc1 (racemic)	< 3 µL/min/mg	2.7	
CC(=O)N1Cc2cc(S(C)(=O)=O)ccc2C1C(=O)Nc1ccc(C(O)(C(F)(F)F)C(F)(F)F)cc1 (racemic)	< 3 µL/min/mg	2.4	Vdss [5]: 2 L/kg; CL/F (in vivo [6]): 6.3 mL/min/kg; half-life (in vivo [7]): 4.9 h; bioavailability (in vivo [8]): 40%; hepatocyte CLint (in vitro [9]): < 1 µL/min/1e6 cells; hepatocyte CLint (in vitro [10]): < 1 µL/min/1e6 cells
